Experimental data: patent US12448395B2 (BRISTOL-MYERS SQUIBB COMPANY, priority 2019, dated 2025)
pIC50: −log10 of the molar value.

Legend:
TLR7 = target: T1, TLR7 (Mus musculus, UniProt P58681); test: In vivo mouse TLR7 PD model (gardiquimod-induced plasma IL-6 and IFN-alpha); settings: C57BL/6 mice, 90 min after gardiquimod
T1 sequence (P58681 27-1050): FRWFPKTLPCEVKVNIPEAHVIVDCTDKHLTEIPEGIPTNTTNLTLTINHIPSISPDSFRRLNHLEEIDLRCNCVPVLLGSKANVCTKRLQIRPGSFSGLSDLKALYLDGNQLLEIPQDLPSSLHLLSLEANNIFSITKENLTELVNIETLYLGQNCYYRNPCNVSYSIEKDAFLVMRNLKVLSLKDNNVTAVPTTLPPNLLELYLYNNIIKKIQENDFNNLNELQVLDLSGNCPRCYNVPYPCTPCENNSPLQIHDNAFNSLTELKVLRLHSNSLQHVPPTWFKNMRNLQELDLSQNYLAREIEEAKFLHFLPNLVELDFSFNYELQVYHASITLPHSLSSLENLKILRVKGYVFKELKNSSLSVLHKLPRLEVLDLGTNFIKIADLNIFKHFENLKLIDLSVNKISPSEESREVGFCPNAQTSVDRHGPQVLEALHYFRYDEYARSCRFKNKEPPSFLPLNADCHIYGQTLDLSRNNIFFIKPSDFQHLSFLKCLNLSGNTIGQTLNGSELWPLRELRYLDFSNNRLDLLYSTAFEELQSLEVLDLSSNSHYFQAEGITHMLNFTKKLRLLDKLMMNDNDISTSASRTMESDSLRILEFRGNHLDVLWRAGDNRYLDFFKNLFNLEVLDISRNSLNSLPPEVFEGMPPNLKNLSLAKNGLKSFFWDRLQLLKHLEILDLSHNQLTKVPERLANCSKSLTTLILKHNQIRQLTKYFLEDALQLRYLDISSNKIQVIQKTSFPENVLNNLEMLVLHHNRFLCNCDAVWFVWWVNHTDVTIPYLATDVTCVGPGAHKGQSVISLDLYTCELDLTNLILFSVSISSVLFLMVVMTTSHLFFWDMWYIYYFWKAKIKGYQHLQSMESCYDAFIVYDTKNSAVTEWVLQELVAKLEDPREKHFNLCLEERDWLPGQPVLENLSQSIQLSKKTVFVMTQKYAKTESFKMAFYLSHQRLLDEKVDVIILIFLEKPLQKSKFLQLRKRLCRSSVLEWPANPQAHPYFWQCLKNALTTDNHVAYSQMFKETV
Protocol: In Vivo Mouse TLR7 PD Model:
Adult male C57BL/6 mice were used for the experiments. Mice (7 to 10 per group) were randomized into different treatment groups based on body weight. Mice from the respective treatment groups were administered orally with vehicle or test compound. Thirty min after the oral administration of vehicle or test compound, mice were challenged with intraperitoneal injection of gardiquimod for TLR7 PD model. Ninety minutes after gardiquimod injection, mice were bled under isoflurane anaesthesia and plasma IL-6 and IFN-alpha levels were estimated by using commercially available ELISA kit (BD Biosciences, PBL Life Sciences). At the end of experiment, mean cytokine data was plotted and one way ANOVA with Dunnett's test was performed to calculate the significance of test compound treated group vs. vehicle control group. Percent inhibition of cytokine induction was calculated for test compound treated group vs vehicle control group.

human TLR8 = target: T2, human TLR8 (Homo sapiens, UniProt Q9NR97); test: TLR8 inhibition reporter assay (HEK-Blue SEAP, R848 stimulation); type: cell-based; settings: HEK-Blue cells overexpressing human TLR8, R848 15.9 μM
T2 sequence (Q9NR97 27-1041): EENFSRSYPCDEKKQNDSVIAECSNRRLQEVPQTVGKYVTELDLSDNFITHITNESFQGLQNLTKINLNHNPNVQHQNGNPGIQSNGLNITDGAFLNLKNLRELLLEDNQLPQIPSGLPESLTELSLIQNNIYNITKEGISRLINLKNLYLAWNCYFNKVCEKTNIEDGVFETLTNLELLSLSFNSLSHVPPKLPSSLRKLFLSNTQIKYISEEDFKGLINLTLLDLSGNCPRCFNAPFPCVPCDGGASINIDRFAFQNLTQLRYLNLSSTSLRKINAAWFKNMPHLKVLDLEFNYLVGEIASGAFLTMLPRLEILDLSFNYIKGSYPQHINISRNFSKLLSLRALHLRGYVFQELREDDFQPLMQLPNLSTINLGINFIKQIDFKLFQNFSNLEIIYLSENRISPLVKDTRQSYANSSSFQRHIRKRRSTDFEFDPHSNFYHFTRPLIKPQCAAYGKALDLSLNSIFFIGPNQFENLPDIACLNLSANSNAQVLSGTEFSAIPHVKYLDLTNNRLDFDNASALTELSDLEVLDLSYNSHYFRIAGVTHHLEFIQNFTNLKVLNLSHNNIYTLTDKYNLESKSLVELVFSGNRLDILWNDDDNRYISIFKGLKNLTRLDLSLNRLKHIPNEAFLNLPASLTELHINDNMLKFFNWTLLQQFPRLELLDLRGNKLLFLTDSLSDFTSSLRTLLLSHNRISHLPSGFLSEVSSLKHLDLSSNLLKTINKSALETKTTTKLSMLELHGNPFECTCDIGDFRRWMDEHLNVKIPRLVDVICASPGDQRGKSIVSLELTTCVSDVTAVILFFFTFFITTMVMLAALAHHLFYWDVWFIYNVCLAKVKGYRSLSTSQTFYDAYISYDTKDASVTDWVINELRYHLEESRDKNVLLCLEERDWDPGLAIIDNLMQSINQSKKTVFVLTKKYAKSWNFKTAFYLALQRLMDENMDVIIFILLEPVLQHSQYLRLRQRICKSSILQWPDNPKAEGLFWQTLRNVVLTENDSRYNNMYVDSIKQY
Protocol: (§1) TLR7/8/9 Inhibition Reporter Assays
(§2) HEK-Blue™-cells (Invivogen) overexpressing human TLR7, TLR8 or TLR9 receptors were used for screening inhibitors of these receptors using an inducible SEAP (secreted embryonic alkaline phosphatase) reporter gene under the control of the IFN-β minimal promoter fused to five NF-κB and AP-1-binding sites. Briefly, cells are seeded into Greiner 384 well plates (15000 cells per well for TLR7, 20,000 for TLR8 and 25,000 for TLR9) and then treated with test compounds in DMSO to yield a final dose response concentration range of 0.05 nM-50 μM. After a 30 minute compound pre-treatment at room temperature, the cells are then stimulated with a TLR7 ligand (gardiquimod at a final concentration of 7.5 μM), TLR8 ligand (R848 at a final concentration of 15.9 μM) or TLR9 ligand (ODN2006 at a final concentration of 5 nM) to activate NF-κB and AP-1 which induce the production of SEAP. After a 22 hour incubation at 37° C., 5% CO2, SEAP levels are determined with the addition of HEK-Blue™ Detection reagent (Invivogen), a cell culture medium that allows for detection of SEAP, according to manufacturer's specifications. The percent inhibition is determined as the % reduction in the HEK-Blue signal present in wells treated with agonist plus DMSO alone compared to wells treated with a known inhibitor.

human TLR9 = target: T3, human TLR9 (Homo sapiens, UniProt Q9NR96); test: TLR9 inhibition reporter assay (HEK-Blue SEAP, ODN2006 stimulation); type: cell-based; settings: HEK-Blue cells overexpressing human TLR9, ODN2006 5 nM
T3 sequence (Q9NR96 26-1032): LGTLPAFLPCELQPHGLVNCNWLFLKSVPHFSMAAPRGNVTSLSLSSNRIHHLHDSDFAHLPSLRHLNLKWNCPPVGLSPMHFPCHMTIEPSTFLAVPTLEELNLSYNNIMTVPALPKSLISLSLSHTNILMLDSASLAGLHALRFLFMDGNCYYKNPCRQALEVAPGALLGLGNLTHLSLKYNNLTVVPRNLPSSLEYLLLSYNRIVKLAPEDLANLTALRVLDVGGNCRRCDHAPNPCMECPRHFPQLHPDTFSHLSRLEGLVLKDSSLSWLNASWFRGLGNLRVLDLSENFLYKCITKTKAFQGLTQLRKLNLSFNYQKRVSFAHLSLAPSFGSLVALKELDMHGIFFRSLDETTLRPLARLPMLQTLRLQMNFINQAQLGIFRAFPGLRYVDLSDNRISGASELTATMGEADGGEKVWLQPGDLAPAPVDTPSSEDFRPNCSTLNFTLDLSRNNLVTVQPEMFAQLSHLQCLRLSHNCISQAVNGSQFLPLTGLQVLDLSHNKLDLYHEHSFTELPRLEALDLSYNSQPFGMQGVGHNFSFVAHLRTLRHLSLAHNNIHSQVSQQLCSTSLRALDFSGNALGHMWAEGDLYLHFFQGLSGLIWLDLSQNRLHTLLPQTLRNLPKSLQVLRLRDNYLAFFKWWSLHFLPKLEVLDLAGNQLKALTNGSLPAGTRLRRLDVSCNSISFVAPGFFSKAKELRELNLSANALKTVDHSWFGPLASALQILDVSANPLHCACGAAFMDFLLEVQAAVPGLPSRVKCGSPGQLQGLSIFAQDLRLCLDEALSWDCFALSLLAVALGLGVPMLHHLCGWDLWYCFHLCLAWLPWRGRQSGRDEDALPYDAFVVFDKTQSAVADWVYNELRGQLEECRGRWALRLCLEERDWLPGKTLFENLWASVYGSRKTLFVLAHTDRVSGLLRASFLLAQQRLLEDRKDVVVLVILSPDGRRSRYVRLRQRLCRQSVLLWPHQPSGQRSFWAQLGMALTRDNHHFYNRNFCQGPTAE
Summary of the method: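 Human TLR7/8/9 HEK-Blue reporter lines; dose range 0.05 nM–50 μM; 30 min RT preincubation; stimulus gardiquimod 7.5 μM / R848 15.9 μM / ODN2006 5 nM respectively; 22 h, 37 °C; SEAP detected colorimetrically.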

human TLR7 = target: T4, human TLR7 (Homo sapiens, UniProt Q9NYK1); test: TLR7 inhibition reporter assay (HEK-Blue SEAP, gardiquimod stimulation); type: cell-based; settings: HEK-Blue cells overexpressing human TLR7, gardiquimod 7.5 μM
T4 sequence (Q9NYK1 27-1049): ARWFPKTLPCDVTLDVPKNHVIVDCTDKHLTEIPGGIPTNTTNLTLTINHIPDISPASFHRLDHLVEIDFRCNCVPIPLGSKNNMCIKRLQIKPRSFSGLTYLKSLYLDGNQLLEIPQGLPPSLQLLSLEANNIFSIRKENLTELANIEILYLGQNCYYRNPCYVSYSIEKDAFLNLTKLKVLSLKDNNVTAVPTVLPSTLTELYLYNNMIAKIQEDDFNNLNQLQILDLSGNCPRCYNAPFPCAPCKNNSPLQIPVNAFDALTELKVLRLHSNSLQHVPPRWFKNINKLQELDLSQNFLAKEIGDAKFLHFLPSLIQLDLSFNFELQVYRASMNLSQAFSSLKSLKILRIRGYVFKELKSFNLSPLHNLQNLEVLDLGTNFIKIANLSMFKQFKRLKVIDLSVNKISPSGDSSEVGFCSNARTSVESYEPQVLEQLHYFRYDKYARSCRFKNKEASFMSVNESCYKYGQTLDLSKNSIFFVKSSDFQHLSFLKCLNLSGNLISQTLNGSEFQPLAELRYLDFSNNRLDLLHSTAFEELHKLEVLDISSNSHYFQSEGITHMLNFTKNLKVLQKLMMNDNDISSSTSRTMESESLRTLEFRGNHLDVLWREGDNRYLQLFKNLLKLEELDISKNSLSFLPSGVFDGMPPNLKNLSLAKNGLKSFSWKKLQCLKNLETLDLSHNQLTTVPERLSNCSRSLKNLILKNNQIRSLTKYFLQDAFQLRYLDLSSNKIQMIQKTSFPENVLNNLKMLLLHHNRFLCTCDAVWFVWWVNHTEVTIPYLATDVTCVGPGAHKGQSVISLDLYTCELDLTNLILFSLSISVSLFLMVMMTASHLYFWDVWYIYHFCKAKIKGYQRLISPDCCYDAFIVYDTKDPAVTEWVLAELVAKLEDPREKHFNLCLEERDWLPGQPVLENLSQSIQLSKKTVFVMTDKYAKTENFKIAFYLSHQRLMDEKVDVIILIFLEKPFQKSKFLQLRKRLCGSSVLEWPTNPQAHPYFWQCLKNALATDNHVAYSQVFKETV
Protocol: as §1, §2

COc1cc(-c2[nH]c3sc(C4CCC(NC5COC5)CC4)nc3c2C(C)C)cn2ncnc12 (single isomer, unassigned) [Example 65, N-(4-(6-isopropyl-5-(8-methoxy-[1,2,4]triazolo[1,5-a]pyridin-6-yl)-4H-pyrrolo[3,2-d]thiazol-2-yl)cyclohexyl)oxetan-3-amine]
% inhibition of IFN-alpha (TLR7; oral dose 0.001 mg/kg): 50% | % inhibition of IL6 (TLR7; oral dose 0.001 mg/kg): 21% | % inhibition of IFN-alpha (TLR7; oral dose 0.005 mg/kg): 63% | % inhibition of IL6 (TLR7; oral dose 0.005 mg/kg): 42% | % inhibition of IFN-alpha (TLR7; oral dose 0.025 mg/kg): 97% | % inhibition of IL6 (TLR7; oral dose 0.025 mg/kg): 78% | % inhibition of IFN-alpha (TLR7; oral dose 0.050 mg/kg): 99% | % inhibition of IL6 (TLR7; oral dose 0.050 mg/kg): 94%

Cc1c(-c2[nH]c3sc(C4CCC(NCC(=O)N5CCOCC5)CC4)nc3c2C(C)C)cn2ncnc2c1C (single isomer, unassigned) [Example 206, 2-((4-(5-(7,8-dimethyl-[1,2,4]triazolo[1,5-a]pyridin-6-yl)-6-isopropyl-4H-pyrrolo[3,2-d]thiazol-2-yl)cyclohexyl)amino)-1-morpholinoethan-1-one]
pIC50 (human TLR8): 9.19 | pIC50 (human TLR9): 4.90 | pIC50 (human TLR7): 8.64

COc1cc(-c2c(C(C)C)c3nc(C4CCN(CC(F)(F)F)CC4)sc3n2CC(F)(F)F)cn2ncnc12 [Example 9, 6-isopropyl-5-(8-methoxy-[1,2,4]triazolo[1,5-a]pyridin-6-yl)-4-(2,2,2-trifluoroethyl)-2-(1-(2,2,2-trifluoroethyl)piperidin-4-yl)-4H-pyrrolo[3,2-d]thiazole]
pIC50 (human TLR8): < 5.51 | pIC50 (human TLR7): < 5.51

Cc1cc(-c2[nH]c3sc(N4CCN(C5CCC5)C[C@H]4C)nc3c2C(C)C)cn2ncnc12 [Example 362, (R)-2-(4-cyclobutyl-2-methylpiperazin-1-yl)-6-isopropyl-5-(8-methyl-[1,2,4]triazolo[1,5-a]pyridin-6-yl)-4H-pyrrolo[3,2-d]thiazole]
pIC50 (human TLR8): < 5.51 | pIC50 (human TLR7): < 5.51
